From patent US10426815B2, “Prevention and treatment of itch with an MRGPR antagonist” (THE GENERAL HOSPITAL CORPORATION, priority 2015, dated 2019)
Entries after “also recorded” stand apart in the source; their conditions may differ.

What was measured:
MrgB2 (mouse MrgprB2) = biological target: T1, MrgB2 (mouse MrgprB2) (Mus musculus, UniProt Q3KNA1); experiment: Calcium imaging of cells transfected with the GPCR (Table 1); assay type: cell-based; conditions: for inhibition of SP-induced activation of mouse MrgprB2: FIG. 11: SP 50 μM, NK1 antagonists 50 μM
T1 construct: expressed in transfected cells; host or cells: HeLa cells, pcDNA3.1(-)
T1 sequence (Q3KNA1 1-338): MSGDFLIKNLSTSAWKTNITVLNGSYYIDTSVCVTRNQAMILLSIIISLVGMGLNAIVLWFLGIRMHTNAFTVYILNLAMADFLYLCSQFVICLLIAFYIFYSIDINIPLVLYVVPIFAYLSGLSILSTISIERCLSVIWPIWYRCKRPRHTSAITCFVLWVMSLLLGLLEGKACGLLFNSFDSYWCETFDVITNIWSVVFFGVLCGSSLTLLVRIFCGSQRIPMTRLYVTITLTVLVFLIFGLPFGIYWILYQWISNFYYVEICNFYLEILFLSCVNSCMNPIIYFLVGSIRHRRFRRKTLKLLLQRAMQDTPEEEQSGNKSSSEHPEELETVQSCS
Experimental: human MRGPRX2 was isolated by PCR from human genomic DNA using the forward and reverse primers, […] (SEQ. ID. NO: 3) and […] (SEQ. ID. NO: 4), and cloned into pcDNA3.1(−). The mouse MrgprA1 cDNA expression clone was purchased from ORIGENE Technologies. The mouse MrgprB2 coding sequences were PCR-amplified from mouse genomic DNA using the primer pair, […] (SEQ. ID. NO: 5) and […] (SEQ. ID. NO: 6), and cloned into pcDNA3.1 (−).
10 μg of expression vector (human MRGPRX2, mouse MrgprA1 or NK1) and 10 μl of LIPOFECTAMINE 2000 transfection reagent were diluted into 0.5 ml of DMEM and separately left at room temperature (RT) for 5 min. They were then mixed and incubated at RT for 20 minutes prior to being added to HeLa cells. HeLa cells were grown to confluence, trypsinized and 1×10^6 cells were pelleted in a 15 ml tube by centrifugation at 1000 rpm for 5 minutes. The DMEM-LIPOFECTAMINE 2000-DNA mixture (1 ml) was then added to the cell pellet, suspended and incubated at RT for 5 minutes. 2 ml of complete DMEM with 10% FBS without antibiotics were added to the tube, mixed by inverting the tube, plated into a 96-well glass bottom plate at 50,000 cells/well, and placed in a 37° C. CO2 incubator for 3 hours. HeLa cells transfected with salmon sperm DNA were plated as a control. The medium was changed after 3 hours and left in the incubator. 24 hours after transfection, the medium in the wells was removed and 100 μl of complete DMEM containing 2 μM of FURA-2 were added to each well and left at room temperature in the dark for 1 hr.
Calcium imaging was performed immediately after loading cells with Fura-2, using a ZEISS Axiovert 200M microscope platform equipped with a flipping filter wheel for ratiometric imaging. Axiovision software, version 4.6 was used for calcium image analysis of the cells excited at 340 nm and 380 nm. Agonists were added at 15 seconds after the start of the excitation procedure. Antagonists were added five minutes before imaging with the agonists. Images were taken every 5 seconds, including at zero time, during a 90 second period or longer if required. The software later analyzed all images taken during each excitation period. Ratiometric changes were measured in 10-20 cells in each individual experiment. An average of the fluorescence of the cells in each image was calculated and plotted against time in seconds.

Mrgprs = experiment: Calcium imaging of transfected HeLa cells, statements on Mrgprs not named singly; assay type: cell-based; conditions: for inhibition of activation of Mrgprs by SP: FIG. 6a: cells pretreated with inhibitor 10 minutes
Experimental: They were then mixed and incubated at RT for 20 minutes prior to being added to HeLa cells. HeLa cells were grown to confluence, trypsinized and 1×10^6 cells were pelleted in a 15 ml tube by centrifugation at 1000 rpm for 5 minutes. The DMEM-LIPOFECTAMINE 2000-DNA mixture (1 ml) was then added to the cell pellet, suspended and incubated at RT for 5 minutes. 2 ml of complete DMEM with 10% FBS without antibiotics were added to the tube, mixed by inverting the tube, plated into a 96-well glass bottom plate at 50,000 cells/well, and placed in a 37° C. CO2 incubator for 3 hours. HeLa cells transfected with salmon sperm DNA were plated as a control. The medium was changed after 3 hours and left in the incubator. 24 hours after transfection, the medium in the wells was removed and 100 μl of complete DMEM containing 2 μM of FURA-2 were added to each well and left at room temperature in the dark for 1 hr. Following loading with FURA-2, the medium was removed, washed with PBS and replaced with 90 μl of HEPES-buffered saline (20 mM HEPES, 115 mM NaCl, 5.4 mM KCl, 2 mM CaCl2, 0.8 mM MgCl2, 13.8 mM glucose, pH 7.4). Calcium imaging was performed immediately after loading cells with Fura-2, using a ZEISS Axiovert 200M microscope platform equipped with a flipping filter wheel for ratiometric imaging. Axiovision software, version 4.6 was used for calcium image analysis of the cells excited at 340 nm and 380 nm. Agonists were added at 15 seconds after the start of the excitation procedure. […] The software later analyzed all images taken during each excitation period. Ratiometric changes were measured in 10-20 cells in each individual experiment. An average of the fluorescence of the cells in each image was calculated and plotted against time in seconds.

[1] = tested on: mice (itch, scratching bouts); experiment: Mouse cheek model, scratching bouts; assay type: in vivo; conditions: for effect on SP-provoked itch (scratching bouts): C57BL/6 (WT) mice, co-injected with SP intradermally into the cheek; for effect on SP-provoked itch (scratching bouts) / provocation of itch (scratching bouts) by the injected substance, WT mice: 10 μl; for provocation of itch (scratching bouts) by the injected substance, WT mice: intradermal injection into the cheek
Experimental: The mouse cheek model was used to evaluate scratching behavior in Mrgpr cluster Δ−/− and NK1−/− mice. Mice used for behavioral studies were 2 to 3 months old, 20-30 g. Mice were habituated for 30 minutes/day for 3 days prior and for 15 minutes on the day of the study. 10 μl of each compound were delivered by a 31G needle to the cheek. The mice were not shaved prior to injections to avoid irritation. All experiments were performed at consistent times during the day (9:00 am to 2:00 pm) and under the same conditions and in groups of at least 7 mice. The mice were videotaped in a soundproof environment minimize distraction. Recordings were scored for the number of scratching bouts that occur over 1 minute intervals during 25 minute observation periods and the investigator was not aware of the group allocation during scoring the study and behavioral analysis. A scratching bout was initiated by lifting of the hind paw to the area of injection, and ended by returning of the hind paw to the floor or to the mouth. […]
For behavioral studies, average numbers of scratching bouts were compared across groups using one-way ANOVA. Pair-wise comparisons were performed using student t test after correcting p values for multiple comparisons using the Bonferroni procedure. For DRG studies and mast cell degranulation studies, unpaired student t-test was used. Differences were considered to be statistically significant for P<0.05. Data analysis was performed using PRISM 6.

[2] = C57BL/6 mice, co-injected intradermally into the cheek, 10 μL, 500 μM of each substance

| Compound | inhibition of SP-induced activation of mouse MrgprB2 (MrgB2 (mouse MrgprB2)) | inhibition of activation of Mrgprs by SP (Mrgprs) | effect on SP-provoked itch (scratching bouts) ([1]; 500 μM of each substance) | activation of mouse MrgprB2 by the substance (in words) (MrgB2 (mouse MrgprB2)) | provocation of itch (scratching bouts) by the injected substance, WT mice [1] | also measured |
| --- | --- | --- | --- | --- | --- | --- |
| FC(F)(F)c1cc(CO[C@H]2CCCN[C@H]2c2ccccc2)cc(C(F)(F)F)c1 [L-733060] | antagonized; also recorded: antagonists | did not impact | only minimally effective; also recorded: not effective |  |  | inhibition of activation of Mrgprs by SP (Mrgprs; listed as L733060): do not inhibit; effect on SP-provoked itch (scratching bouts) ([1]; 500 μM of each substance, listed as L733060): does not significantly decrease and not and lack of significant blockade and does not |
| Boc-Gln-D-Trp(Formyl)-Phe benzyl ester trifluoroacetate [QWF] | inhibits; also recorded: antagonized; also recorded: antagonist | blocks | significantly decreased; also recorded: decreased SP-induced itch to baseline; also recorded: decreased SP-provoked itch to baseline; also recorded: reduced to baseline |  |  | inhibition of mMrgprB2 activation by compound 48/80 (MrgB2 (mouse MrgprB2)): inhibits; inhibition of mouse MrgprB2 activation by atracurium and ciprofloxacin (MrgB2 (mouse MrgprB2); FIG. 8a): antagonized; also recorded: inhibits; inhibition of mMrgprB2 activation by SLIGRL (MrgB2 (mouse MrgprB2); SLIGRL 10 μM, QWF 10 μM (FIG. 12)): inhibits; inhibition of activation of Mrgprs by compound 48/80 (Mrgprs; FIG. 7b: compound 48/80 1 μM, QWF 1 μM): antagonizes; also recorded: inhibits; effect on SLIGRL-provoked itch (scratching bouts) [1, 2]: blocks; also recorded: reduced to baseline; also recorded: significantly decreased; effect on compound 48/80-provoked itch (scratching bouts) [1, 2]: blocks compound 48/80-induced itch to baseline; also recorded: blocks compound 48/80-provoked itch to baseline; also recorded: reduced to baseline; also recorded: significantly decreased |
| C[C@@H](O[C@H]1OCCN(Cc2n[nH]c(=O)[nH]2)[C@H]1c1ccc(F)cc1)c1cc(C(F)(F)F)cc(C(F)(F)F)c1 [aprepitant] | antagonized; also recorded: antagonists | did not impact; also recorded: do not inhibit |  |  |  |  |
| SLIGRL: tethered hexapeptide ligand of mouse PAR2 (SEQ ID NO: 7) |  |  |  | activates | provoke itch |  |
| SP: inflammatory undecapeptide neuropeptide of the tachykinin family, synthesized by GenScript |  |  |  | activates | induced itch; also recorded: provoked itch | SP-provoked itch in NK1 knockout mice ([1]; cheek, intradermal, FIG. 5a: 10 μL SP 1 mM, compared to WT): induced itch; also recorded: provoked itch; also recorded: not decreased; SP-provoked itch in Mrgpr cluster knockout mice ([1]; cheek, intradermal, FIG. 5a: 10 μL SP 1 mM, compared to WT, listed as Substance P): does not provoke itch; provocation of itch (scratching bouts) by the injected substance, WT mice ([1]; listed as Substance P): provokes itch |
